Reference: patent US11445724B2, “Insecticidal compounds” (SYNGENTA PARTICIPATIONS AG, priority 2013, dated 2022)

Columns and labels:
Format in all cases: in vivo
[1] = tested on: Diabrotica balteata (Corn root worm); test: Diabrotica balteata (Corn root worm) larval mortality, artificial diet in 24-well MTP; details: 120 h, application rate 200 ppm (concentration in well 18 ppm), L2 larvae, larval mortality after 5 days
[2] = tested on: Myzus persicae (Green peach aphid); test: Myzus persicae (Green peach aphid) mortality, test compounds mixed with Sucrose solution under Parafilm; details: 120 h, 12.5 ppm in Sucrose solution, infested pea seedlings on Parafilm, mortality 5 days after infestation
[3] = tested on: Thrips tabaci (Onion thrips); test: Thrips tabaci (Onion thrips) mortality, sprayed sunflower leaf discs; details: foliar, 168 h, 200 ppm spray on sunflower leaf discs, mixed ages, mortality after 7 days
[4] = tested on: Plutella xylostella (Diamond back moth); test: Plutella xylostella (Diamond back moth) larval mortality, artificial diet in 24-well MTP; details: 144 h, application rate 200 ppm (concentration in well 18 ppm), L2 larvae, larval mortality after 6 days
[5] = tested on: Spodoptera littoralis (Egyptian cotton leafworm); test: Spodoptera littoralis (Egyptian cotton leafworm) mortality, sprayed cotton leaf discs; details: foliar, 72 h, 200 ppm spray on cotton leaf discs, L1 larvae, mortality 3 DAT
[6] = tested on: Myzus persicae (Green peach aphid); test: Myzus persicae (Green peach aphid) mortality, sprayed sunflower leaf discs; details: foliar, 144 h, 200 ppm spray on sunflower leaf discs, mixed ages, mortality 6 DAT

COc1c(NC(=O)c2ccccc2F)cccc1C(=O)Nc1c(Br)cc(C(F)(C(F)(F)F)C(F)(F)F)cc1OC(F)F [Compound 33]
≥ 80%: pest or weed control at 200 ppm [1] | pest or weed control at 12.5 ppm [2] | pest or weed control at 200 ppm [3] | pest or weed control at 200 ppm [4] | pest or weed control at 200 ppm [5]

COc1c(NC(=O)c2ccc(C)cc2)cccc1C(=O)Nc1c(Br)cc(C(F)(C(F)(F)F)C(F)(F)F)cc1OC(F)F [Compound 41]
≥ 80%: pest or weed control at 200 ppm [6] | pest or weed control at 200 ppm [1] | pest or weed control at 12.5 ppm [2] | pest or weed control at 200 ppm [3] | pest or weed control at 200 ppm [4] | pest or weed control at 200 ppm [5]

COc1c(NC(=O)c2cc(Cl)ccc2F)cccc1C(=O)Nc1c(Br)cc(C(F)(C(F)(F)F)C(F)(F)F)cc1OC(F)F [Compound 44]
≥ 80%: pest or weed control at 12.5 ppm [2] | pest or weed control at 200 ppm [4] | pest or weed control at 200 ppm [5]

O=C(Nc1cccc(C(=O)Nc2c(Cl)cc(C(F)(C(F)(F)F)C(F)(F)F)cc2OC(F)F)c1F)c1ccccc1F [Compound 45]
≥ 80%: pest or weed control at 200 ppm [6] | pest or weed control at 200 ppm [1] | pest or weed control at 12.5 ppm [2] | pest or weed control at 200 ppm [3] | pest or weed control at 200 ppm [4] | pest or weed control at 200 ppm [5]

COc1c(NC(=O)c2ccc(F)c(C(F)(F)F)c2)cccc1C(=O)Nc1c(Br)cc(C(F)(C(F)(F)F)C(F)(F)F)cc1OC(F)F [Compound 52]
≥ 80%: pest or weed control at 200 ppm [6] | pest or weed control at 200 ppm [1] | pest or weed control at 200 ppm [3] | pest or weed control at 200 ppm [4] | pest or weed control at 200 ppm [5]

COc1c(NC(=O)c2ccccc2OC(F)(F)F)cccc1C(=O)Nc1c(Br)cc(C(F)(C(F)(F)F)C(F)(F)F)cc1OC(F)F [Compound 56]
≥ 80%: pest or weed control at 200 ppm [6] | pest or weed control at 200 ppm [1] | pest or weed control at 12.5 ppm [2] | pest or weed control at 200 ppm [3] | pest or weed control at 200 ppm [4] | pest or weed control at 200 ppm [5]

COc1c(NC(=O)c2ccccc2C(F)(F)F)cccc1C(=O)Nc1c(Br)cc(C(F)(C(F)(F)F)C(F)(F)F)cc1OC(F)F [Compound 63]
≥ 80%: pest or weed control at 200 ppm [6] | pest or weed control at 200 ppm [1] | pest or weed control at 200 ppm [3] | pest or weed control at 200 ppm [4] | pest or weed control at 200 ppm [5]

COc1c(NC(=O)c2cccc(F)c2F)cccc1C(=O)Nc1c(Br)cc(C(F)(C(F)(F)F)C(F)(F)F)cc1OC(F)F [Compound 69]
≥ 80%: pest or weed control at 200 ppm [6] | pest or weed control at 200 ppm [1] | pest or weed control at 200 ppm [3] | pest or weed control at 200 ppm [4] | pest or weed control at 200 ppm [5]

COc1c(NC(=O)c2ccc(C)cc2)cccc1C(=O)Nc1c(Cl)cc(C(F)(C(F)(F)F)C(F)(F)F)cc1OC(F)F [Compound 82]
≥ 80%: pest or weed control at 200 ppm [6] | pest or weed control at 200 ppm [1] | pest or weed control at 200 ppm [3] | pest or weed control at 200 ppm [4] | pest or weed control at 200 ppm [5]

CCN(C(=O)c1cc(Cl)ccc1F)c1cccc(C(=O)Nc2c(Br)cc(C(F)(C(F)(F)F)C(F)(F)F)cc2OC(F)F)c1F [Compound 104]
≥ 80%: pest or weed control at 200 ppm [1] | pest or weed control at 12.5 ppm [2] | pest or weed control at 200 ppm [3] | pest or weed control at 200 ppm [4] | pest or weed control at 200 ppm [5]

CCN(C(=O)c1ccc(C(F)(F)F)cc1)c1cccc(C(=O)Nc2c(Br)cc(C(F)(C(F)(F)F)C(F)(F)F)cc2OC(F)F)c1F [Compound 105]
≥ 80%: pest or weed control at 200 ppm [6] | pest or weed control at 200 ppm [1] | pest or weed control at 12.5 ppm [2] | pest or weed control at 200 ppm [3] | pest or weed control at 200 ppm [4] | pest or weed control at 200 ppm [5]

CCN(C(=O)c1cc(C(F)(F)F)ccc1F)c1cccc(C(=O)Nc2c(Br)cc(C(F)(C(F)(F)F)C(F)(F)F)cc2OC(F)F)c1F [Compound 110]
≥ 80%: pest or weed control at 200 ppm [1] | pest or weed control at 12.5 ppm [2] | pest or weed control at 200 ppm [3] | pest or weed control at 200 ppm [4] | pest or weed control at 200 ppm [5]

CCN(C(=O)c1ccccc1F)c1cccc(C(=O)Nc2c(Cl)cc(C(F)(C(F)(F)F)C(F)(F)F)cc2OC(F)F)c1F [Compound 111]
≥ 80%: pest or weed control at 200 ppm [6] | pest or weed control at 200 ppm [1] | pest or weed control at 12.5 ppm [2] | pest or weed control at 200 ppm [3] | pest or weed control at 200 ppm [4] | pest or weed control at 200 ppm [5]

CCN(C(=O)c1ccc([N+](=O)[O-])cc1)c1cccc(C(=O)Nc2c(Cl)cc(C(F)(C(F)(F)F)C(F)(F)F)cc2OC(F)F)c1F [Compound 113]
≥ 80%: pest or weed control at 200 ppm [1] | pest or weed control at 12.5 ppm [2] | pest or weed control at 200 ppm [4] | pest or weed control at 200 ppm [5]

CCN(C(=O)c1ccc(C)cc1)c1cccc(C(=O)Nc2c(Cl)cc(C(F)(C(F)(F)F)C(F)(F)F)cc2OC(F)F)c1F [Compound 114]
≥ 80%: pest or weed control at 200 ppm [1] | pest or weed control at 12.5 ppm [2] | pest or weed control at 200 ppm [3] | pest or weed control at 200 ppm [4] | pest or weed control at 200 ppm [5]

CCN(C(=O)c1cc(Cl)ccc1F)c1cccc(C(=O)Nc2c(Cl)cc(C(F)(C(F)(F)F)C(F)(F)F)cc2OC(F)F)c1F [Compound 115]
≥ 80%: pest or weed control at 200 ppm [1] | pest or weed control at 12.5 ppm [2] | pest or weed control at 200 ppm [3] | pest or weed control at 200 ppm [4] | pest or weed control at 200 ppm [5]

CCN(C(=O)c1ccc([N+](=O)[O-])cc1Cl)c1cccc(C(=O)Nc2c(Cl)cc(C(F)(C(F)(F)F)C(F)(F)F)cc2OC(F)F)c1F [Compound 116]
≥ 80%: pest or weed control at 200 ppm [1] | pest or weed control at 12.5 ppm [2] | pest or weed control at 200 ppm [3] | pest or weed control at 200 ppm [5]

CCN(C(=O)c1ccc(C(F)(F)F)cc1)c1cccc(C(=O)Nc2c(Cl)cc(C(F)(C(F)(F)F)C(F)(F)F)cc2OC(F)F)c1F [Compound 117]
≥ 80%: pest or weed control at 200 ppm [1] | pest or weed control at 12.5 ppm [2] | pest or weed control at 200 ppm [3] | pest or weed control at 200 ppm [4] | pest or weed control at 200 ppm [5]

CCN(C(=O)c1ccccc1C)c1cccc(C(=O)Nc2c(Br)cc(C(F)(C(F)(F)F)C(F)(F)F)cc2OC(F)F)c1F [Compound 126]
≥ 80%: pest or weed control at 200 ppm [1] | pest or weed control at 12.5 ppm [2] | pest or weed control at 200 ppm [3] | pest or weed control at 200 ppm [4] | pest or weed control at 200 ppm [5]

CCN(C(=O)c1ccccc1Cl)c1cccc(C(=O)Nc2c(Br)cc(C(F)(C(F)(F)F)C(F)(F)F)cc2OC(F)F)c1OC [Compound 131]
≥ 80%: pest or weed control at 200 ppm [6] | pest or weed control at 200 ppm [1] | pest or weed control at 200 ppm [3] | pest or weed control at 200 ppm [4] | pest or weed control at 200 ppm [5]

CCN(C(=O)c1ccc(C)cc1)c1cccc(C(=O)Nc2c(Br)cc(C(F)(C(F)(F)F)C(F)(F)F)cc2OC(F)F)c1OC [Compound 132]
≥ 80%: pest or weed control at 200 ppm [6] | pest or weed control at 200 ppm [1] | pest or weed control at 200 ppm [3] | pest or weed control at 200 ppm [4] | pest or weed control at 200 ppm [5]

CCN(C(=O)c1ccccc1C(F)(F)F)c1cccc(C(=O)Nc2c(Br)cc(C(F)(C(F)(F)F)C(F)(F)F)cc2OC(F)F)c1OC [Compound 140]
≥ 80%: pest or weed control at 200 ppm [6] | pest or weed control at 200 ppm [1] | pest or weed control at 200 ppm [3] | pest or weed control at 200 ppm [4] | pest or weed control at 200 ppm [5]

CCN(C(=O)c1cccc(F)c1F)c1cccc(C(=O)Nc2c(Br)cc(C(F)(C(F)(F)F)C(F)(F)F)cc2OC(F)F)c1OC [Compound 142]
≥ 80%: pest or weed control at 200 ppm [6] | pest or weed control at 200 ppm [1] | pest or weed control at 200 ppm [3] | pest or weed control at 200 ppm [4] | pest or weed control at 200 ppm [5]

CCN(C(=O)c1ccc(F)cc1F)c1cccc(C(=O)Nc2c(Br)cc(C(F)(C(F)(F)F)C(F)(F)F)cc2OC(F)F)c1OC [Compound 143]
≥ 80%: pest or weed control at 200 ppm [6] | pest or weed control at 200 ppm [1] | pest or weed control at 200 ppm [3] | pest or weed control at 200 ppm [4] | pest or weed control at 200 ppm [5]

CCN(C(=O)c1ccccc1Cl)c1cccc(C(=O)Nc2c(Cl)cc(C(F)(C(F)(F)F)C(F)(F)F)cc2OC(F)F)c1OC [Compound 147]
≥ 80%: pest or weed control at 200 ppm [6] | pest or weed control at 200 ppm [1] | pest or weed control at 200 ppm [3] | pest or weed control at 200 ppm [4] | pest or weed control at 200 ppm [5]

CCN(C(=O)c1ccc(C)cc1)c1cccc(C(=O)Nc2c(Cl)cc(C(F)(C(F)(F)F)C(F)(F)F)cc2OC(F)F)c1OC [Compound 149]
≥ 80%: pest or weed control at 200 ppm [6] | pest or weed control at 200 ppm [1] | pest or weed control at 200 ppm [3] | pest or weed control at 200 ppm [4] | pest or weed control at 200 ppm [5]

CCN(C(=O)c1ccc(F)cc1F)c1cccc(C(=O)Nc2c(Cl)cc(C(F)(C(F)(F)F)C(F)(F)F)cc2OC(F)F)c1OC [Compound 160]
≥ 80%: pest or weed control at 200 ppm [1] | pest or weed control at 12.5 ppm [2] | pest or weed control at 200 ppm [3] | pest or weed control at 200 ppm [4] | pest or weed control at 200 ppm [5]

COc1c(C(=O)Nc2c(Br)cc(C(F)(C(F)(F)F)C(F)(F)F)cc2OC(F)F)cccc1N(C)C(=O)c1cc[n+]([O-])cc1 [Compound 183, N-[3-[[2-bromo-6-(difluoromethoxy)-4-[1,2,2,2-tetrafluoro-1-(trifluoromethyl)ethyl]phenyl]carbamoyl]-2-methoxy-phenyl]-N-methyl-1-oxido-pyridin-1-ium-4-carboxamide]
≥ 80%: pest or weed control at 200 ppm [1] | pest or weed control at 12.5 ppm [2]
